Test results as given in patent US20220265817A1, “THERAPEUTIC COMPOSITIONS AND METHODS FOR TREATING HEPATITIS B” (priority 2017, published 2022).

Test system: HBV cccDNA-dependent precore RNA in DESHAe82 cells
Experiment: DESHAe82 / DE19 cell culture system, cccDNA-derived precore RNA by qRT-PCR, MacSynergy II
Assay type: cell-based, Hepatitis B virus
Details: ETV μM: 0.01, 0.0032, 0.001, 0.0003, 0.0001, 3E−05, 0
Description: In vitro combination studies were conducted using a modification of the assay system described in Cai et al (Antimicrobial Agents Chemotherapy, 2012. Vol 56(8):4277-88). A previously developed HepDE19 cell culture system (Guo et al. J. Virology (2007) 81(22): 12472-12484) supports HBV DNA replication and cccDNA formation in a tetracycline (Tet)-regulated manner, and produces a detectable reporter molecule which is dependent upon the production and maintenance of cccDNA.
In the HepDE19 cell culture system, the reporters are the precore RNA and its cognate protein product, the secreted HBV “e antigen” (HBeAg). In HepDE19 cells, precore RNA and HBeAg are only produced from the cccDNA circular template, because the ORF of HBeAg and its 5′ RNA leader are separated between the opposite ends of the integrated viral genome, and only become contiguous with the formation of cccDNA. Although an assay based on the HepDE19 cell culture system is effective for determining activity, the results of high throughput screening may be complicated because the HBeAg ELISA cross reacts with a viral HBeAg homologue, which is the core antigen (HBcAg) expressed largely in a cccDNA-independent fashion in HepDE19 cells. To overcome this complication, an alternative cell culture system (designated herein as DESHAe82 cell culture system and described in PCT/EP/2015/06838) has been developed which includes an in-frame HA epitope tag in the N-terminal coding sequence of HBeAg in the transgene of DESHAe82 cells, without disrupting any cis-element critical for HBV replication, cccDNA transcription, and HBeAg secretion.
A chemiluminescence ELISA assay (CLIA) for the detection of HA-tagged HBeAg with HA antibody serving as capture antibody and […] has been developed, eliminating the contaminating signal from HBcAg. […] In addition, a protocol for quantitative reverse transcription and polymerase chain reaction (qRT-PCR) that is specific for detection of precore RNA in either DE19 or DESHAe82 cells was developed and is also used for the detection of the cccDNA-dependent mRNA (precore RNA) that is translated to produce HBeAg or HA-HBeAg.
To test the compound combinations, DESHAe82 or DE19 cells (as indicated in examples) were plated in 96 well tissue-culture treated microtiter plates in DMEM/F12 medium supplemented with 10% fetal bovine serum+1% penicillin-streptomycin with Tet, and incubated in a humidified incubator at 37° C. and 5% CO2 overnight. […] The two inhibitors were tested both singly as well as in combinations in a checkerboard fashion such that each test concentration of inhibitor A was combined with each test concentration of inhibitor B to determine their combination effects on inhibition of cccDNA formation and expression. Untreated negative control samples (0.5% DMSO or media only) were included on each plate in multiple wells. Following a 9 day-incubation, media was removed and cells were subjected to RNA extraction to measure the cccDNA-dependent precore mRNA level. Total cellular RNAs were extracted using a 96-well format total RNA isolation kit ([…]-NAGEL, Cat. 740466.4) by following the instruction of manufacturer (vacuum manifold processing, two more extra washes of Buffer RA4). RNA samples were eluted in RNAase-free water. Quantitative real-time RT-PCR was performed with a Roche LightCycler480 and RNA Master Hydrolysis probe (Catalog number 04991885001, Roche) using primers and conditions for specific detection of cccDNA-dependent precore RNA. GAPDH mRNA levels were also detected by standard methods and used to normalize the precore RNA levels.

With `CC[C@@H](C)NS(=O)(=O)c1ccc(F)c(C(=O)Nc2ccc(F)c(F)c2)c1` [Compound 3] the “Average percent inhibition versus negative control (precore RNA)” value (Compound 3 0.032 μM) was −26.280%, the “Average percent inhibition versus negative control (precore RNA)” value (Compound 3 0.100 μM) was −86.920% and the “Average percent inhibition versus negative control (precore RNA)” value (Compound 3 0.317 μM) was 36.240%. For the same compound, the “Average percent inhibition versus negative control (precore RNA)” value (Compound 3 1.001 μM) was 67.120%, the “Average percent inhibition versus negative control (precore RNA)” value (Compound 3 3.165 μM) was 90.600% and the “Average percent inhibition versus negative control (precore RNA)” value (Compound 3 10 μM) was 84.340%.
